These results are taken from the NIST ThermoML archive (doi:10.1016/j.jct.2004.07.006).

This data set can be described thus: mn = molality of the nth substance listed, in mol/kg. The settings on record: 298.15 K, 101.33 kPa, Liquid.

± gives the expanded uncertainty stated by the source.

Usually viscosity stands for the resistance of a fluid to flow. Turning to `NCC(=O)NCC(=O)O` [glycylglycine] + O, the viscosity is recorded as 0.9265 ± 0.03 mPa·s (m1 = 0.0995), 0.9265 ± 0.03 mPa·s (m1 = 0.0998), 1.062 ± 0.034 mPa·s (m1 = 0.5004) and 1.145 ± 0.036 mPa·s (m1 = 0.7502).

In the case of `C[C@H](N)C(=O)O` [(S)-2-aminopropanoic acid] + O, the viscosity came to 0.9179 ± 0.03 mPa·s (m1 = 0.1002), 1.017 ± 0.032 mPa·s (m1 = 0.4992), 1.08 ± 0.034 mPa·s (m1 = 0.7503) and 1.152 ± 0.036 mPa·s (m1 = 0.9992).

With `NCC(=O)O` [2-aminoacetic acid] + O, the viscosity (m1 = 0.4993) is listed as 0.9561 ± 0.031 mPa·s; the viscosity (m1 = 0.7501) turned out to be 0.9914 ± 0.032 mPa·s; the viscosity (m1 = 1) is reported as 1.028 ± 0.033 mPa·s; the viscosity (m1 = 1.499) worked out at 1.106 ± 0.035 mPa·s; the viscosity (m1 = 1.5) is recorded as 1.106 ± 0.035 mPa·s; the viscosity (m1 = 2) is 1.189 ± 0.037 mPa·s.
